From patent publication EP3298022B1, “NOVEL ANNELATED PHENOXYACETAMIDES” (Boehringer Ingelheim International GmbH, priority 2015, dated 2017)

What was measured:
in vitro = in vitro ADME; conditions: human, pH 7.4, 37°C, 10 µM compound; for Papp A→B: apical-to-basal; for Papp B→A: basal-to-apical
Method: Permeability measurements across polarized, confluent CALU-3 cell monolayers grown on permeable filter supports are used to provide information on the potential of a compound to pass the lung epithelium. Apparent permeability coefficients (Papp) of the compounds across the CALU-3 cell monolayers are measured (pH 7.4, 37°C) in apical-to-basal (AB) and basal-to-apical (BA) transport direction.
CALU-3 cells (1-2 x 10^5 cells/1 cm^2 area) are seeded on filter inserts (Costar transwell polycarbonate filters, 0.4 µm pore size) and cultured (for 10 - 12 days DMEM) until tight monolayers are formed. Compounds of interest are dissolved in appropriate solvent (DMSO, 10 mM stock solution). Stock solutions are diluted with HTP-4 buffer (128.13 mM NaCl, 5.36 mM KCl, 1 mM MgSO4, 1.8 mM CaCl2, 4.17 mM NaHCO3, 1.19 mM Na2HPO4 x 7H2O, 0.41 mM NaH2PO4xH2O, 15 mM HEPES, 20 mM glucose, 0.25 % BSA, pH 7.4) to prepare the transport solutions (10 µM compound, final DMSO <= 0.5 %). The transport solution (TL) is applied to the apical or basolateral donor side for measuring A-B or B-A permeability (3 filter replicates), respectively. The receiver side contains the same buffer as the donor side. After 30 min of accommodation, samples are collected at the start t0 = 0 min and at the end of the experiment tn = 90 min from the donor and at 0, 30, 60, and 90 min also from the receiver chamber. Volume removed is replenished by HTP-4 buffer. The compound concentration in the samples is measured by HPLC-MS/MS or scintillation counting. The permeability coefficient (Papp) and efflux ratio are calculated according to: Papp [cm/s] = (concentration receiver [nM] * volume receiver [mL]/time interval [sec])*(1/filter area)*(1/donor concentration [nM]).

ENaC = target: T1, ENaC (Mus musculus, UniProt Q61180+Q9WU38+Q9WU39); assay: Ussing Chamber assay (short circuit current, amiloride sensitive I_SC); format: cell-based; conditions: Mouse kidney M-1 cells, apical administration, 37°C
T1 construct: Mouse kidney M-1 cells were cultivated in DMEM containing 5% FCS and 5µM dexamethasone; endogenous in cells; host or cells: Mouse kidney M-1 cells (cortical collecting duct line), dexamethasone-treated, on transwell filters
T1 sequence (Q61180 1-699): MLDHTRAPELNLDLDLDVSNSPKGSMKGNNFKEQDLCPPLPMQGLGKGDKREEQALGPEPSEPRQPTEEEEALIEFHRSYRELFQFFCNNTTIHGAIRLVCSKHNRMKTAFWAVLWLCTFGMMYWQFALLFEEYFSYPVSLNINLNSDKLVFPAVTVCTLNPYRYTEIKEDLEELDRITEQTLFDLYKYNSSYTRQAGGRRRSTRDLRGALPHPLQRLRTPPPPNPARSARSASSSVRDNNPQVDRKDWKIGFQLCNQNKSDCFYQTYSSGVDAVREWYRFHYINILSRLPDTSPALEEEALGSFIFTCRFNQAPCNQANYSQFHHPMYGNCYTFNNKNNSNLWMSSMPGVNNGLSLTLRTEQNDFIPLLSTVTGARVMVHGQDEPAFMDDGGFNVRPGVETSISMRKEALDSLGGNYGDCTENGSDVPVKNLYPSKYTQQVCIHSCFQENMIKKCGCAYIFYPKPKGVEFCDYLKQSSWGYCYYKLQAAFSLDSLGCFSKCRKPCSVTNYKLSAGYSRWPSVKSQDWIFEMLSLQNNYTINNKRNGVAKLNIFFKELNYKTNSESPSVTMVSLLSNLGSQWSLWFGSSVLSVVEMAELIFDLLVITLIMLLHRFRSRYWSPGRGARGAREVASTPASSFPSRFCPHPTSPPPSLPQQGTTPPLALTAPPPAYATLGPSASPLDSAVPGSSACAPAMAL
T1 sequence (Q9WU38 1-638): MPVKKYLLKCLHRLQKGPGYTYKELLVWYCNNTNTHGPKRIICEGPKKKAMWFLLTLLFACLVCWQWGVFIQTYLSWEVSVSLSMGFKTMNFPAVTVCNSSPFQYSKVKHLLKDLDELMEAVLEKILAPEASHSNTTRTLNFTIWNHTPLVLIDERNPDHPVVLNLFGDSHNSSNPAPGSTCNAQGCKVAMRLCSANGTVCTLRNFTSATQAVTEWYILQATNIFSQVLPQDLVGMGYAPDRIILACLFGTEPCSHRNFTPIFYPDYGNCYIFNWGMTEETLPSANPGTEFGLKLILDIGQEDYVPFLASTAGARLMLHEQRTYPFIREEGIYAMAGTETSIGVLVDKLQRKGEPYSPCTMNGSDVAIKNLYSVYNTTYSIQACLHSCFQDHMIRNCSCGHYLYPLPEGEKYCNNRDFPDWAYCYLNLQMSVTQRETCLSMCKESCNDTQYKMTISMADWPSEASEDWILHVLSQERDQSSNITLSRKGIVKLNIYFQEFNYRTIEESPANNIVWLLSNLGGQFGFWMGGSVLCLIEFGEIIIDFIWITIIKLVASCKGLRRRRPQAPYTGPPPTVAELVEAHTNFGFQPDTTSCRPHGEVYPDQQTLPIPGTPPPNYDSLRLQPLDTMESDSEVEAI
T1 sequence (Q9WU39 1-655): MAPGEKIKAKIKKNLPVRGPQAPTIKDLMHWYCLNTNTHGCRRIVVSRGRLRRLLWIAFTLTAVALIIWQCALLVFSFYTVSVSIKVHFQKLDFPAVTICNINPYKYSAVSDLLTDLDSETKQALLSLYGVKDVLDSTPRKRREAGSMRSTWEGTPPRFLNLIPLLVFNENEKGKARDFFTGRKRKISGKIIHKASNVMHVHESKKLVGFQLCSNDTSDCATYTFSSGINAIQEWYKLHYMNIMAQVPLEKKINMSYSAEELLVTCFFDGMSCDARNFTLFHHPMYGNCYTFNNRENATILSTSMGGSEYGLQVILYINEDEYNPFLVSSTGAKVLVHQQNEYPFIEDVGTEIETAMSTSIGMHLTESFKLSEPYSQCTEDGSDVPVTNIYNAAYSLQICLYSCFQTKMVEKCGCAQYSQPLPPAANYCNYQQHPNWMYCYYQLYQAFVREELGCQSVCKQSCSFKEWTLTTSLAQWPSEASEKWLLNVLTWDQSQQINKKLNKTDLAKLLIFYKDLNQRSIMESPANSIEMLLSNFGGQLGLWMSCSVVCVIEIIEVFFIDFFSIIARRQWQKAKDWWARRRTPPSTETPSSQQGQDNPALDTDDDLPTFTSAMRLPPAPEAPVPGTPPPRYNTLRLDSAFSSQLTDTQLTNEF
Method: The IC50 values of the example compounds given above were determined in the Ussing Chamber assay.
Ussing Chamber: Mouse kidney M-1 cells were cultivated in DMEM containing 5% FCS and 5µM dexamethasone for 10 to 12 days on polyester transwell filters. Filters were inserted into a teflon-coated well-plate which fit into the ussing chamber system. Prior to measurement the medium of M-1 cells was replaced with Caco-2 transport buffer (Invitrogen, Germany). During measurements, the Ussing chamber temperature was kept at 37°C. Short circuit currents (I_sc) were measured in the voltage-clamp mode with the software package Lab View for data acquisition and analysis. The transepithelial electrical resistance (TEER) was determined by the application of voltage steps of ±5mV every 5 sec. Compounds were administered at a final concentration of 3µM or at increasing concentrations (1-3-10µM) to the apical solution. At the end of each experiment the amiloride sensitive I_SC was measured by adding 3µM amiloride to the apical compartment. Results are expressed as inhibition in percent of the amiloride effect or as IC50.

Compound	Papp A→B (in vitro) [×10⁻⁶ cm/s]	Papp B→A (in vitro) [×10⁻⁶ cm/s]	IC50 (ENaC) [nM]
CC[n+]1c(CNC(=O)c2nc(Cl)cnc2N)n(CC2CCCO2)c2cc(OCC(=O)N3CC[S+]([O-])CC3)ccc21 (stereo not drawn) [Example 1.01]	0.8	0.3	
CCn1c(CNC(=O)c2nc(Cl)cnc2N)[n+](CC)c2ccc(OCC(=O)NCCCN)cc21 [Example 2.01]	0.2	0.5	1
CCOCCN1CCC(NC(=O)COc2ccc3c(c2)n(CC)c(CNC(=O)c2nc(Cl)cnc2N)[n+]3CC)CC1 [Example 2.07]			3
